# Where a name gives a salt, the structure may show the parent alone. Active and inactive are the calls of the source.
# Key:
# [1] = target: Voltage-dependent T-type calcium channel subunit alpha-1H (Homo sapiens, UniProt O95180); assay type: functional;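 further: channel activity triggered by adding a high calcium stimulation buffer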
# Protein skinhead-1 = target: T1, Protein skinhead-1 (Caenorhabditis elegans, UniProt P34707); assay type: functional
# T1 sequence (P34707 whole entry): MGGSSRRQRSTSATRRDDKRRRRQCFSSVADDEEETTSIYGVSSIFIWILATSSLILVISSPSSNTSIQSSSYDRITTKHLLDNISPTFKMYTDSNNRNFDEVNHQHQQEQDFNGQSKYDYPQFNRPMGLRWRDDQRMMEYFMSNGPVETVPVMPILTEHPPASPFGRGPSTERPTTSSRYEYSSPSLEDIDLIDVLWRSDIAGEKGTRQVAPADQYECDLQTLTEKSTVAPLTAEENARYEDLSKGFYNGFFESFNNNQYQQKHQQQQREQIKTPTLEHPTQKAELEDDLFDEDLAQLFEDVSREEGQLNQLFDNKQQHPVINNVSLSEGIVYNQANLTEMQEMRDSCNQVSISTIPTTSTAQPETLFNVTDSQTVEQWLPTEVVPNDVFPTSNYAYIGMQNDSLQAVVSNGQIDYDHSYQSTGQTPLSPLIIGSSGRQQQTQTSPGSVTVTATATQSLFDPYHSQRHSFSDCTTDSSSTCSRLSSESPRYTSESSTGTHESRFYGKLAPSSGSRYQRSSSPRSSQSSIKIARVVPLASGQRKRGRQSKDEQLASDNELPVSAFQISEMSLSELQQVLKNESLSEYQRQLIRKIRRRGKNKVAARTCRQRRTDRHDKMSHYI
# [2] = target: T2, Oxysterols receptor LXR-beta (Homo sapiens, UniProt P55055); assay type: functional, cell-based;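 further: Cell-based luminescence dose-response assay of agonist activity at LXR, run as a confirmatory counterscreen to a daf-12 agonist screen; HEK293 cells with Gal4-LXR fusion and GAL4-driven luciferase reporter; agonist potency from rising luciferase signal of a Gal4-LXR reporter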
# T2 sequence (P55055 whole entry): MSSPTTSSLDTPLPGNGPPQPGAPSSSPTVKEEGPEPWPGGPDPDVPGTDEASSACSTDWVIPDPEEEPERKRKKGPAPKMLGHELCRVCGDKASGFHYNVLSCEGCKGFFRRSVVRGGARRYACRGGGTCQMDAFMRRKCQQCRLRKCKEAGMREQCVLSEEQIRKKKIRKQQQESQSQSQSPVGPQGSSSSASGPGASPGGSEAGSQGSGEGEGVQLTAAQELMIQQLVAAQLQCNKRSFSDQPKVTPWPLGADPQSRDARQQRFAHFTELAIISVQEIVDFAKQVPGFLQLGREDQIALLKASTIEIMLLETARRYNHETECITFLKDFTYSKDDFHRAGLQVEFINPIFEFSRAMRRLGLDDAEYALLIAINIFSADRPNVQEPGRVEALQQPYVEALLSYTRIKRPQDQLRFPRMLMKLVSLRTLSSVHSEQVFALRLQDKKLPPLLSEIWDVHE
# [3] = target: T3, Polyadenylate-binding protein 1 (Homo sapiens, UniProt P11940); experiment: PABP1 MLLE–PAM2 interaction inhibitors, dose response, miRNA deadenylation inhibitor project, biochemical, fluorescence polarization, Cy5-PAM2 peptide, secondary (AID 602260); assay type: functional; conditions: read-out: IC50_Mean
# [4] = target: T3, Polyadenylate-binding protein 1; experiment: PABP1 MLLE–PAM2 binding inhibitor potency, dose response, biochemical, fluorescence polarization, FITC-PAM2 peptide (AID 602259); assay type: functional; conditions: read-out: IC50_Mean
# [5] = Dose-response inhibition of insulin secretion in a rat insulinoma line at 5 mM glucose (AID 1117331); assay type: functional, cell-based; conditions: INS-1E
# [6] = target: T4, 1-phosphatidylinositol 4,5-bisphosphate phosphodiesterase gamma-1 (Homo sapiens, UniProt P19174); experiment: Counterscreen for inhibitors of phospholipase C isozymes (PLC-B3): Fluorescence-based biochemical high throughput dose response assay to identify inhibitors of phospholipase C isozymes (PLC-gamma1).
# T4 sequence (P19174 whole entry): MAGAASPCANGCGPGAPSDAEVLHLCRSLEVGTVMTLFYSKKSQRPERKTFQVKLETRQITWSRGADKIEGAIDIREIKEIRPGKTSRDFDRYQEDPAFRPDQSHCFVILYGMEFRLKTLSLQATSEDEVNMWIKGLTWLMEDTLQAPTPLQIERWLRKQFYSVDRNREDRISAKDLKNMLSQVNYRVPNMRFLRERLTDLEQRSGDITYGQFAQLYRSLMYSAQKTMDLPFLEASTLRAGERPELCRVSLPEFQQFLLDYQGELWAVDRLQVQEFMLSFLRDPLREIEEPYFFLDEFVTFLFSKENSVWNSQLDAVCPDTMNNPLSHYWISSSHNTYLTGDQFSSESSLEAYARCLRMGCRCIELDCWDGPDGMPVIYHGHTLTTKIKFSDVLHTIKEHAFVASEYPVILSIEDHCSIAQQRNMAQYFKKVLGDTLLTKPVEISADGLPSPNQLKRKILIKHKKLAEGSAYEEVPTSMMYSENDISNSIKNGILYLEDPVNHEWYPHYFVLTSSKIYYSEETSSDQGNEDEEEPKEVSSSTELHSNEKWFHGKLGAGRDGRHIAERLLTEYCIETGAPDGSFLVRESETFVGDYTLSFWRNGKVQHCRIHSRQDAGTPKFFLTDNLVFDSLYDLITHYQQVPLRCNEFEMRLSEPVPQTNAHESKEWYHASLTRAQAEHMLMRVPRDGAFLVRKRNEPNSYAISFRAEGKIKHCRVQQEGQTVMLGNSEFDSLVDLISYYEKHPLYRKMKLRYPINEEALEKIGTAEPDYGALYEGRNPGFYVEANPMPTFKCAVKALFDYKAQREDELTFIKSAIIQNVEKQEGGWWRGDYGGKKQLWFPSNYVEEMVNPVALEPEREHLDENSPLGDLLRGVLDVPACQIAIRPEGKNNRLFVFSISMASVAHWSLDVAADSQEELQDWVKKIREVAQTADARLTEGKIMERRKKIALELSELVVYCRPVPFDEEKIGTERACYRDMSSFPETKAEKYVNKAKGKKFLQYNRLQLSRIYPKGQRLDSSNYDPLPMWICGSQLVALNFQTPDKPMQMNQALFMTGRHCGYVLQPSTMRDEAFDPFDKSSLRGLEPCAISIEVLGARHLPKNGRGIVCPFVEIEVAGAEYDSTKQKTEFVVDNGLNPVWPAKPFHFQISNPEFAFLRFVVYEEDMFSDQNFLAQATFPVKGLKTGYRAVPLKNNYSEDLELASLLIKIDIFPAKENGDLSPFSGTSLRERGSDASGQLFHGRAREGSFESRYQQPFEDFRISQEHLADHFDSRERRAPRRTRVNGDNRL
# [7] = target: T5, 1-phosphatidylinositol 4,5-bisphosphate phosphodiesterase beta-3 (Homo sapiens, UniProt Q01970); experiment: Fluorescence-based biochemical high throughput dose response assay to identify inhibitors of phospholipase C isozymes (PLC-B3).
# T5 sequence (Q01970 whole entry): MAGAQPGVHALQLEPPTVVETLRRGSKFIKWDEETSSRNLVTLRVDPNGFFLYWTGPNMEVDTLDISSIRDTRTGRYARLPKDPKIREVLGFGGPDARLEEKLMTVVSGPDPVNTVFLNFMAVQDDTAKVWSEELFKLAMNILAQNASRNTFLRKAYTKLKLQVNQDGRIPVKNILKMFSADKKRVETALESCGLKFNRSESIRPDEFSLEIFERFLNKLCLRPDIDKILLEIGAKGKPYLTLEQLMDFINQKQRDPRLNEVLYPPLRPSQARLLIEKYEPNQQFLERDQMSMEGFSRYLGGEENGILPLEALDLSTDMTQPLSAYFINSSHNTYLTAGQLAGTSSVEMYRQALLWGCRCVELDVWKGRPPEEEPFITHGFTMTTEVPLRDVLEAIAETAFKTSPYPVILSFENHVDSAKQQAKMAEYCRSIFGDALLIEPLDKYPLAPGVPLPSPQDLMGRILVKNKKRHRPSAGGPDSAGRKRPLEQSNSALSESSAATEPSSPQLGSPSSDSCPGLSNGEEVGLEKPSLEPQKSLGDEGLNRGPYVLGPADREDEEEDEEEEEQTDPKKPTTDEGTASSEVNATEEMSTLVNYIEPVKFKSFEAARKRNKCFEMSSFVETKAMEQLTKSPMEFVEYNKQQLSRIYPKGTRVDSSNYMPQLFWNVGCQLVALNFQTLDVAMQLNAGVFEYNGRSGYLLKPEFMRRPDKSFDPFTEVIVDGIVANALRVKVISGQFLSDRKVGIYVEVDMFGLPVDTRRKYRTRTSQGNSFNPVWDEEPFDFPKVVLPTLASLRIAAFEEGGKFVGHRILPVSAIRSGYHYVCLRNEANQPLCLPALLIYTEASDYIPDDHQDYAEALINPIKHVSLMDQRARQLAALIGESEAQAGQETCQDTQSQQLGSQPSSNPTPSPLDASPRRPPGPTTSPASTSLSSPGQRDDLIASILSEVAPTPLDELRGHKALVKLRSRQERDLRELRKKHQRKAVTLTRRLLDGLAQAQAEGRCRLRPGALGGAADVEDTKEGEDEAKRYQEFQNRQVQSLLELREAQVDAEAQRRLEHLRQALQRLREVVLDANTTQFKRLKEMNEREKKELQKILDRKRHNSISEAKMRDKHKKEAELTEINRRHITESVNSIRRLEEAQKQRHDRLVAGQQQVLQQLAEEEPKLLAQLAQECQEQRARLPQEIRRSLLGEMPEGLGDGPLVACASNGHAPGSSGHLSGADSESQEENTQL
# Cytochrome P450 1A2 = target: T6, Cytochrome P450 1A2 (Homo sapiens, UniProt P05177);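 further: PubChem cytochrome P450 panel assay, CYP1A2 panel member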
# T6 sequence (P05177 whole entry): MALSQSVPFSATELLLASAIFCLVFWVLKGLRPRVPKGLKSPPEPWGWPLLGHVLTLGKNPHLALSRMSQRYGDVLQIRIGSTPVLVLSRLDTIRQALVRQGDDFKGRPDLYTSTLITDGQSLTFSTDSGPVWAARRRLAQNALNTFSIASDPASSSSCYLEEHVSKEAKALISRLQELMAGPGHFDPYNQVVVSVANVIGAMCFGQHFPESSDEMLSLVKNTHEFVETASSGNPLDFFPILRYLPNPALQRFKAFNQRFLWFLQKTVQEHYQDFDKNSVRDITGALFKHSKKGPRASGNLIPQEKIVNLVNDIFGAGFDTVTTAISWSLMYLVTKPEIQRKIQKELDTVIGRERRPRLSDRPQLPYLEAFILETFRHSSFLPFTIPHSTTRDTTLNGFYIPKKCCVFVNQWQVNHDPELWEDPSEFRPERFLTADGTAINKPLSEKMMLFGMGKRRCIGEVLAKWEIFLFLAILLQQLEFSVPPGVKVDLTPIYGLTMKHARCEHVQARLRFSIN
# [8] = HepG2 cell cytotoxicity, dose response, cytotoxicity control, cherry-picked samples (AID 1159577); assay type: functional, cell-based
# [9] = target: T7, Heat shock factor protein 1 (Mus musculus, UniProt P38532); experiment: inhibition of MG132-induced HSE-luciferase signal, confirmation, cell-based, NIH3T3, luminescence, dose retest (AID 2382); assay type: functional;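 further: NIH3T3 fibroblasts with HSF1-driven luciferase reporter stressed by proteasome inhibitor MG132; luminescence from HSF1-driven luciferase expression after 8 hours of MG132 stress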
# T7 sequence (P38532 whole entry): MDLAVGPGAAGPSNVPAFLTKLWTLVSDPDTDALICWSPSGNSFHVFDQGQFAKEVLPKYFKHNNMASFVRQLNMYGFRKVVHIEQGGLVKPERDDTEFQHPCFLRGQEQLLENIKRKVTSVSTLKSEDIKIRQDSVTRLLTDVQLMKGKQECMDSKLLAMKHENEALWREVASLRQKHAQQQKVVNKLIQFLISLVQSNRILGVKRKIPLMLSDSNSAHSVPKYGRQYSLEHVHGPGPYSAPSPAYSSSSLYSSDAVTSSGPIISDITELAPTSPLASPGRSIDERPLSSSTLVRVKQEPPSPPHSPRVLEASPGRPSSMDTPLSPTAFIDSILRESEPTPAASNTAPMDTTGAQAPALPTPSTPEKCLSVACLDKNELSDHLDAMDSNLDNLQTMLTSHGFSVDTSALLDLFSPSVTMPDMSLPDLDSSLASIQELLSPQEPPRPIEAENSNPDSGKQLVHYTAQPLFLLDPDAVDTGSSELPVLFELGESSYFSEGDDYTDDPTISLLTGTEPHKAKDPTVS
# [10] = target: T8, COUP transcription factor 2 (Homo sapiens, UniProt P24468); experiment: Luminescence-based cell-based high throughput dose response assay to identify inhibitors of COUP-TFII (NR2F2).; assay type: functional;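 further: HEK293 cells transiently cotransfected with COUP-TFII expression vector and reporter; luciferase reporter luminescence driven by COUP-TFII from the pX2-168 reporter plasmid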
# T8 sequence (P24468 whole entry): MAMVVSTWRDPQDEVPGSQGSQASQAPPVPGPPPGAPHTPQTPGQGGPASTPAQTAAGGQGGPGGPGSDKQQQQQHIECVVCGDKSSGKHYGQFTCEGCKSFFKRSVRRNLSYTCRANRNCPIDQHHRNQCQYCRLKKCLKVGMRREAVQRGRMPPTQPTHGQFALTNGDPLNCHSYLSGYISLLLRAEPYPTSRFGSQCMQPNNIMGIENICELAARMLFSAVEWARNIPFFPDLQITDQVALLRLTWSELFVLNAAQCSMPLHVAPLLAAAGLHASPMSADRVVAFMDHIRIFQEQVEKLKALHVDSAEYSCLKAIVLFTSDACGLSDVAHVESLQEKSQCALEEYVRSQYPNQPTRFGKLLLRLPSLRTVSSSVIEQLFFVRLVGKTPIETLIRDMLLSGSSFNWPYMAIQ
# T3 sequence (P11940 whole entry): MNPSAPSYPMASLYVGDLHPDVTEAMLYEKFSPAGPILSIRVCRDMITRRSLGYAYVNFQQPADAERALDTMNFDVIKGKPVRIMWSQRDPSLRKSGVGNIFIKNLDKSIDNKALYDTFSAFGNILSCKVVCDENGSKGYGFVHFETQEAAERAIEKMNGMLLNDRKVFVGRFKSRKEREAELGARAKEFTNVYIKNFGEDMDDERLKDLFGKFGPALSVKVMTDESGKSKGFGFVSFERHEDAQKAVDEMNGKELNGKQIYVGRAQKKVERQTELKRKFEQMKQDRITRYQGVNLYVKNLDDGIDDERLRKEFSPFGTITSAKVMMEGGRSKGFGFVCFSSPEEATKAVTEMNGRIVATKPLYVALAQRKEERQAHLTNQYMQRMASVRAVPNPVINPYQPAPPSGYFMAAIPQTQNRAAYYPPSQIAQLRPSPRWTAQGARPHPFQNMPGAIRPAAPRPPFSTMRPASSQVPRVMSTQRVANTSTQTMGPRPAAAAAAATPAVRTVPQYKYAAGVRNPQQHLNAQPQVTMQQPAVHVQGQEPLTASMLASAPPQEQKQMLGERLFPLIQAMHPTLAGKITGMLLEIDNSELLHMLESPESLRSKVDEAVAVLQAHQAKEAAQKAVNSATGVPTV
# Sequence of Voltage-dependent T-type calcium channel subunit alpha-1H (O95180 whole entry): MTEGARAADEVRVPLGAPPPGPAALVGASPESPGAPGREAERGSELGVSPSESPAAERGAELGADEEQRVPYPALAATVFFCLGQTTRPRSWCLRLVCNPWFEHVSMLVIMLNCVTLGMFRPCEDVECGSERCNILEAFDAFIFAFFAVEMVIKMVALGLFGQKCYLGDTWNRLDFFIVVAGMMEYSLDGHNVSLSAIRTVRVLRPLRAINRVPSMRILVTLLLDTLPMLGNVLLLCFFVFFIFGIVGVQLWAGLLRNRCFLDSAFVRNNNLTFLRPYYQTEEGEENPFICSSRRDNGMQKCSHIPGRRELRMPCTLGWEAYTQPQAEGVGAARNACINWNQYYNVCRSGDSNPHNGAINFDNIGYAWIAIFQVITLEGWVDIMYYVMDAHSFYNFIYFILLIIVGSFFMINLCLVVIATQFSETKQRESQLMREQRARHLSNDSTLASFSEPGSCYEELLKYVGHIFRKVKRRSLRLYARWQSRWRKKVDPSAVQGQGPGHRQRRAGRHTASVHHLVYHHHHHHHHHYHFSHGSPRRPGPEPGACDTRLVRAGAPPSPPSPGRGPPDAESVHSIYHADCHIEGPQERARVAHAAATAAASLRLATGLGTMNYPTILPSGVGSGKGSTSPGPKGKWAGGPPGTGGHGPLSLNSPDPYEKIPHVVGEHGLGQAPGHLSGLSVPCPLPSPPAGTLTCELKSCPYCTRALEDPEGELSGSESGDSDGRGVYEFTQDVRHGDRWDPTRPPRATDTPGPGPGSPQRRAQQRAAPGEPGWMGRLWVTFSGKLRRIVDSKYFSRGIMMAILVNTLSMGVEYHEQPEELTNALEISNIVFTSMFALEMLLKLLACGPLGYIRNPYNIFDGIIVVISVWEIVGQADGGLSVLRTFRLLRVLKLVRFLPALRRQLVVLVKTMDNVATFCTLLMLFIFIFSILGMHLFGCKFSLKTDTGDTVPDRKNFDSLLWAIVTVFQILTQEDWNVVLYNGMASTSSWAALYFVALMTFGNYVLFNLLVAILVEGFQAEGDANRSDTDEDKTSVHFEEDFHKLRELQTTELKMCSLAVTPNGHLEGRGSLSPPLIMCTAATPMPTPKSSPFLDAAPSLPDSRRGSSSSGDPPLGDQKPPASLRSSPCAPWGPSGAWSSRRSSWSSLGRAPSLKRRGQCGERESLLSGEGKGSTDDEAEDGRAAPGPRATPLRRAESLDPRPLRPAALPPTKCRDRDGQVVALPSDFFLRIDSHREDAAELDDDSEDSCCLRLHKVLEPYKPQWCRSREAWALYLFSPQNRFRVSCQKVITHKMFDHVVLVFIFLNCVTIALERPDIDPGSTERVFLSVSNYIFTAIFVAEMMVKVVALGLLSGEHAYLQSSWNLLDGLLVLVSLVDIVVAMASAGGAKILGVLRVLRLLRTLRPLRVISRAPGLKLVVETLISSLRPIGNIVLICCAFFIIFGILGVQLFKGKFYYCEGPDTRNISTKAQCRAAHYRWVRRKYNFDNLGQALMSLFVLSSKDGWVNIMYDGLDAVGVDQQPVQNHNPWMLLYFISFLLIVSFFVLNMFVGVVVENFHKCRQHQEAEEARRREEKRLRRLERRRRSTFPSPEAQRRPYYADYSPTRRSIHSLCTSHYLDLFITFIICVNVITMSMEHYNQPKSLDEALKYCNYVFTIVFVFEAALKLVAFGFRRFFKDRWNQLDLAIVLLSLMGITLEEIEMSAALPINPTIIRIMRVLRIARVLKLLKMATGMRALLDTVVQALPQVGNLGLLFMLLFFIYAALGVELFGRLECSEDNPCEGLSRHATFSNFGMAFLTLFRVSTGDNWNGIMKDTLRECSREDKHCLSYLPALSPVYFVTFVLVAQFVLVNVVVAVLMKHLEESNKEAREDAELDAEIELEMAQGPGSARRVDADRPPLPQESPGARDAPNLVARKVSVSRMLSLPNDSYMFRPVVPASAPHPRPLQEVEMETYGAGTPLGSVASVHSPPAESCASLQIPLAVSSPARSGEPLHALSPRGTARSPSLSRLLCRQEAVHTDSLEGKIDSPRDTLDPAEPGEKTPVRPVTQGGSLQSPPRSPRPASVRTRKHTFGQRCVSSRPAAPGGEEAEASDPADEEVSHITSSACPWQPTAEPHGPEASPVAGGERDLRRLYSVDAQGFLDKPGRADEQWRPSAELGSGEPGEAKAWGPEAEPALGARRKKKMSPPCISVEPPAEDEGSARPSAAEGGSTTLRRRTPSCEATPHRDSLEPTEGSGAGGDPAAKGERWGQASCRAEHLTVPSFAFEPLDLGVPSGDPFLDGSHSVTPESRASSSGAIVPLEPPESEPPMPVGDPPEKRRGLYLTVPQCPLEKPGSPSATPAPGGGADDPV
compound,measurement,setting,value
c1ccc(Nc2nc(-c3cccs3)cs2)nc1,EC50,[1],9.21 µM (active)
same,IC50,Protein skinhead-1,15.6 µM (active)
same,EC50,[2],> 67.5 µM (inactive)
same,EC50,cells,> 67.5 µM (inactive)
CC(=O)c1ccc2c(c1)N(CCCN(C)C)c1ccccc1S2 [ACEPROMAZINE MALEATE],IC50,[3],> 66 µM (inactive)
same,IC50,[4],> 66 µM (inactive)
same,IC50,[5],11.4 µM (inactive)
CC(C)Oc1ccc(C(=O)Nc2ccc(NC(=O)c3ccco3)c(Cl)c2)cc1,IC50,[6],> 122 µM (inactive)
same,IC50,[7],> 122 µM (inactive)
same,AC50,Cytochrome P450 1A2,22.4 µM (inconclusive)
CCNC(=O)Nc1ccc2c(c1)C(=O)N(C)[C@H]1CC[C@H](CC(=O)N[C@H](C)c3ccccc3)O[C@@H]1CO2,IC50,[6],68.8 µM (inactive)
same,IC50,[7],61.9 µM (inactive)
O=c1c(=NNc2ccccc2Cl)c(=O)c2ccccc12,EC50,[2],> 67.5 µM (inactive)
same,EC50,cells,> 67.5 µM (inactive)
COc1ccc2c3c([nH]c2c1)[C@@H](CO)N(C(=O)Nc1ccc(F)cc1)CC31CN(Cc2cc(F)ccc2F)C1,AC50,[8],18.8 µM (active)
c1ccc(-c2csc(Nc3ccccn3)n2)cc1,IC50,Protein skinhead-1,18 µM (active)
same,EC50,[2],> 67.5 µM (inactive)
same,EC50,cells,> 67.5 µM (inactive)
O=C1NC(=O)C(=NNc2ccc3c(c2)OCCO3)C(=O)N1,EC50,[9],< 0.16 µM (active)
same,IC50,[10],6.75 µM (active)
